Laboratory results reported in article PMC4961704, “Synthesis and Biological Evaluation of Thiophene-Based Cannabinoid Receptor Type 2 Radiotracers for PET Imaging” (Frontiers in Neuroscience, 2016).
Entries after “also recorded” stand apart in the source; their conditions may differ. Like-named read-outs stand apart in the source and are kept apart here.

Tests used:
[1] = target: T1, hCB1 (Homo sapiens, UniProt P21554); experiment: Competitive in vitro binding assay with [3H]CP-55,940, membranes of CHO-K1 cells stably transfected with hCB1; details: displacement of [3H]CP-55,940 (1.4 nM), 30°C, 90 min; three independent experiments in triplicate; Cheng-Prusoff
T1 construct: purchased PerkinElmer; host or cells: CHO-K1 cells stably transfected
T1 sequence (P21554 whole entry): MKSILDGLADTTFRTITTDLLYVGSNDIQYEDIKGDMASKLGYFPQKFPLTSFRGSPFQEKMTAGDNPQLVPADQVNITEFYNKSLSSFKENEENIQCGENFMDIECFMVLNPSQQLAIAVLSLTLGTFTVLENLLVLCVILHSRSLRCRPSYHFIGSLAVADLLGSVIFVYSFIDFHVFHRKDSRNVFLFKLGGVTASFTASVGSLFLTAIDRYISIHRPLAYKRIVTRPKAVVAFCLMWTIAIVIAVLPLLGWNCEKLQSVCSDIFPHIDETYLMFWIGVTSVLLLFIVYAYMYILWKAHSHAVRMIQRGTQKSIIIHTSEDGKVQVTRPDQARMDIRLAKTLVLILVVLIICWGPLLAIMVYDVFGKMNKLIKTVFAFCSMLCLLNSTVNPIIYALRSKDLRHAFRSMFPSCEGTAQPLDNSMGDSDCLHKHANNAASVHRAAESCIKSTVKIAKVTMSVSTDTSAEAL
Procedure: (§2) A dilution series ranging from 1 pM to 1 mM in assay buffer (50 mM TRIS, 1 mM EDTA, 3 mM MgCl2 and 0.05% bovine serum albumin, pH adjusted to 7.4) was prepared for each ligand to be tested. […] The samples were incubated at 30°C for 90 min and subsequently diluted with ice cold assay buffer (3 mL) in order to be vacuum-filtered through Whatman GF/C filters (pre-treated with aq. polyethylenimine, 0.05%). Each sample was washed twice with ice cold assay buffer (3 mL) and filtered again. After addition of scintillation cocktail (Ultima Gold, Perkin Elmer), radioactivity was measured using a Beckman LS 6500 Liquid Scintillation Counter. IC50 mean values were calculated after performing three independent experiments, each as triplicate.
(§3) Binding affinity studies were performed using membranes stably transfected with human CB1 and CB2, respectively.

[2] = target: T2, hCB2 (Homo sapiens, UniProt P34972); experiment: Competitive in vitro binding assay with [3H]CP-55,940, membranes of CHO-K1 cells stably transfected with hCB2; details: displacement of [3H]CP-55,940 (1.4 nM), 30°C, 90 min; three independent experiments in triplicate; Cheng-Prusoff
T2 construct: purchased PerkinElmer; host or cells: CHO-K1 cells stably transfected
T2 sequence (P34972 whole entry): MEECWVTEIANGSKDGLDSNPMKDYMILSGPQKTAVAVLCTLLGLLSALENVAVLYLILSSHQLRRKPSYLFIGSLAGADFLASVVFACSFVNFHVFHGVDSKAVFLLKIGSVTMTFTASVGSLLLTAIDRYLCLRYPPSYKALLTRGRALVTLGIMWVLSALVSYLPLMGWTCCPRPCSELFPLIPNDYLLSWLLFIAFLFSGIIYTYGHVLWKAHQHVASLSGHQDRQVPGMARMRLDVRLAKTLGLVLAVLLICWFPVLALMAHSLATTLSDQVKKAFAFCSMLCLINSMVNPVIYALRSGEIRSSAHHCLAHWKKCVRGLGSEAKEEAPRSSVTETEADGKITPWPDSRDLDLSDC
Procedure: as §2, §3

[3] = target: T1, hCB1; design: method as in earlier work; details: known ligands, entry 1–3; ref Showalter et al., 1996; Lan et al., 1999; Valenzano et al., 2005; cited from earlier work
[4] = target: T2, hCB2; design: method as in earlier work; details: known ligands, entry 1–3; ref Showalter et al., 1996; Lan et al., 1999; Valenzano et al., 2005; cited from earlier work
[5] = test system: CB2-positive spleen; experiment: In vivo PET/CT of the spleen region after tail-vein injection; design: species or system Wistar rat
Procedure: Under baseline conditions, radiotracer accumulation was recorded in the region of the spleen in dynamic PET acquisition mode over 60 min (n = 2). During this whole time period rats were kept under anesthesia, body temperature and respiratory rate were constantly monitored. Under blockade conditions, 1.5 mg/kg GW405833 was injected shortly before radiotracer application in two of the four rats. Acquired PET data were reconstructed as user-defined time frames with a voxel size of 0.3875 × 0.3875 × 0.775 mm. For anatomical orientation, CT scans were acquired after each PET scan. Images were evaluated with PMOD v3.4 (PMOD Technologies Inc., Zurich, CH) software. Regions of interest (spleen, liver, and muscle) were drawn manually using the PMOD fusion tool. Time activity curves (TACs) for spleen, liver and muscle were expressed as standardized uptake values (SUV) which are the decay-corrected radioactivity per cm^3 divided by the injected radioactivity dose per gram of body weight.

[6] = test system: CB2-positive rat spleen tissue; experiment: In vitro autoradiography on rat spleen tissue sections; assay type: binding, Wistar rat; details: 5 nM radiotracer; baseline vs blockade with 10 μM GW405833; n = 2
Procedure: (§1) Autoradiography was performed on rat/mouse spleen tissue. Sections were prepared in 20 μm thickness using a cryostat (Cryo-Star NX 50; Thermo Scientific). The tissue slices were adsorbed to SuperFrost Plus (Menzel) slides and stored at −20°C until use. After thawing on ice for 10 min, sections were pre-incubated in the assay buffer containing 50 mM TRIS, 5 mM MgCl2, 2.5 mM EDTA, and 0.5% BSA (pH 7.4). […] In order to test for specificity toward CB2, a solution containing both radiotracer and an excess of CB2 specific partial agonist GW405833 (10 μM) was prepared and added to the tissue. The tissue slices were washed twice with assay buffer (each 2 min) and twice with distilled water (each 5 s) on ice, air dried, and exposed to a phosphor imager plate for a period of 25 min. The plate was scanned using a BAS5000 reader (Fujifilm, Dielsdorf, CH).

[7] = test system: CB2-positive mouse spleen tissue; experiment: In vitro autoradiography on mouse spleen tissue sections; assay type: binding, CD1 mouse; details: 5 nM radiotracer; baseline vs blockade with 10 μM GW405833; n = 2
Procedure: as §1

## CCCc1c(C)sc(NC(=O)C23CC4CC(CC(C4)C2)C3)c1C(=O)OC [AAT-778, Methyl 2-(adamantane-1-carboxamido)-5-methyl-4-propylthiophene-3-carboxylate]
[1]
  Ki: 1100 ± 100 nM
[2]
  Ki: 4.3 ± 0.7 nM

## COc1ccc2c(c1)c(CCN1CCOCC1)c(C)n2C(=O)c1cccc(Cl)c1Cl [GW405833]
[3]
  Ki: 4770 ± 1680 nM
[4]
  Ki: 3.9 ± 1.6 nM

## [11CH3]OC(=O)c1c(NC(=O)C23CC4CC(CC(O)(C4)C2)C3)sc2c1CCCC2 [[^11C]AAT-015]
[5]; baseline, 10–15 MBq i.v., 0–60 min post injection
  spleen uptake of radiotracer (PET): no accumulation; also recorded: low uptake
[5]; blockade with 1.5 mg/kg GW405833 shortly before tracer, 60 min
  spleen uptake, TACs baseline vs blockade (PET): no difference
[6]
  specificity of binding to rat spleen tissue (autoradiography): high unspecific binding
[7]
  specificity of binding to mouse spleen tissue (autoradiography): high unspecific binding

## CCCc1c(C)sc(NC(=O)C23CC4CC(CC(C4)C2)C3)c1C(=O)O[11CH3] [[^11C]AAT-778]
[6]
  specificity of binding to rat spleen tissue (autoradiography): No blocking effect; also recorded: high unspecific binding
[7]
  specificity of binding to mouse spleen tissue (autoradiography): No blocking effect; also recorded: high unspecific binding
